Our source for the IC50 values is patent US20240228535A1 (priority 2022, published 2024).

Each structure is given as a SMILES string.

This experiment concerns the target SARS2 coronavirus 3CL protease (Severe acute respiratory syndrome coronavirus 2, UniProt P0DTD1). The experiment in a line: biochemical. The following applies: 5 nM enzyme, 30 min pre-incubation with compound, 15 μM peptide substrate, 4 h at room temperature; read-out: FRET Potency (nM); IC50 values in the SARS2 3CLPro FRET assay.
As for `C[C@@H]1C[C@@H](C[C@H](NC(=O)c2cc(Cl)ccc2NC(=O)C2CC(F)(F)C2)C(=O)C(=O)NC2CC2)C(=O)N1` [Example 59, 5-chloro-N-[(1S)-3-(cyclopropylamino)-1-[[(3S,5R)-5-methyl-2-oxo-pyrrolidin-3-yl]methyl]-2,3-dioxo-propyl]-2-[(3,3-difluorocyclobutanecarbonyl)amino]benzamide], the IC50 came to 8 nM. On to `O=C(CCC(F)(F)F)Nc1ccc(Cl)cc1C(=O)N[C@@H](C[C@@H]1CCCNC1=O)C(=O)C(=O)NC1CC1` [Example 235, 5-chloro-N-[(1S)-3-(cyclopropylamino)-2,3-dioxo-1-[[(3S)-2-oxo-3-piperidyl]methyl]propyl]-2-(4,4,4-trifluorobutanoylamino) benzamide], for which the IC50 was determined as 15.1 nM. The value for `C[C@@H]1C[C@@H](C[C@H](NC(=O)c2cc(F)cnc2NC(=O)C2CC(F)(F)C2)C(=O)C(=O)NC2CC2)C(=O)N1` [Example 23, N-[(1S)-3-(cyclopropylamino)-1-[[(3S,5R)-5-methyl-2-oxo-pyrrolidin-3-yl]methyl]-2,3-dioxo-propyl]-2-[(3,3-difluorocyclobutanecarbonyl)amino]-5-fluoro-pyridine-3-carboxamide] was 20.6 nM; that for `C[C@@H]1C[C@@H](C[C@H](NC(=O)c2cc(F)cnc2NC(=O)c2cccc(C(F)(F)F)c2)C(=O)C(=O)NC2CC2)C(=O)N1` [Example 67, N-[(1S)-3-(cyclopropylamino)-1-[[(3S,5R)-5-methyl-2-oxo-pyrrolidin-3-yl]methyl]-2,3-dioxo-propyl]-5-fluoro-2-[[3-(trifluoromethyl)benzoyl]amino]pyridine-3-carboxamide] was 7 nM; that for `C[C@@H]1C[C@@H](C[C@H](NC(=O)c2cc(Cl)ccc2NC(=O)C2CC23CC3)C(=O)C(=O)NC2CC2)C(=O)N1` (stereo partly drawn) [Example 83, N-[4-chloro-2-[[(1S)-3-(cyclopropylamino)-1-[[(3S,5R)-5-methyl-2-oxo-pyrrolidin-3-yl]methyl]-2,3-dioxo-propyl]carbamoyl]phenyl] spiro[2.2]pentane-2-carboxamide] was 10.5 nM. The value for `C[C@@H]1C[C@@H](C[C@H](NC(=O)c2cc(Cl)ccc2NC(=O)CCC(F)(F)F)C(=O)C(=O)NCCO)C(=O)N1` [Example 117, 5-chloro-N-[(1S)-3-(2-hydroxyethylamino)-1-[[(3S,5R)-5-methyl-2-oxo-pyrrolidin-3-yl]methyl]-2,3-dioxo-propyl]-2-(4,4,4-trifluorobutanoylamino) benzamide] was 9.3 nM; that for `CNC(=O)C(=O)[C@H](C[C@@H]1C[C@@H](C)NC1=O)NC(=O)c1cc(Cl)cnc1NC(=O)c1ccc(F)cc1` [Example 57, 5-chloro-2-[(4-fluorobenzoyl)amino]-N-[(1S)-3-(methylamino)-1-[[(3S,5R)-5-methyl-2-oxo-pyrrolidin-3-yl]methyl]-2,3-dioxo-propyl]pyridine-3-carboxamide] was 8.1 nM. As to `CNC(=O)C(=O)[C@H](C[C@@H]1CCNC1=O)NC(=O)c1cc(Cl)ccc1NC(=O)OC(C)C` [Example 128, isopropyl N-[4-chloro-2-[[(1S)-3-(methylamino)-2,3-dioxo-1-[[(3S)-2-oxopyrrolidin-3-yl]methyl]propyl]carbamoyl]phenyl]carbamate], the IC50 turned out to be 7.2 nM.

Take `CC(C)OC(=O)Nc1ccc(Cl)cc1C(=O)N[C@@H](C[C@@H]1CCNC1=O)C(=O)C(=O)NC1CC1` [Example 96, isopropyl N-[4-chloro-2-[[(1S)-3-(cyclopropylamino)-2,3-dioxo-1-[[(3S)-2-oxopyrrolidin-3-yl]methyl]propyl]carbamoyl]phenyl]carbamate]: the IC50 was determined as 6 nM.

Take `CNC(=O)C(=O)[C@H](C[C@@H]1C[C@@H](C)NC1=O)NC(=O)c1cc(Cl)ccc1NC(=O)OC1CCC(F)(F)C1` (stereo partly drawn) [Example 200, (3,3-difluorocyclopentyl) N-[4-chloro-2-[[(1S)-3-(methylamino)-1-[[(3S,5R)-5-methyl-2-oxo-pyrrolidin-3-yl]methyl]-2,3-dioxo-propyl]carbamoyl]phenyl] carbamate]: the IC50 was found to be 4.6 nM. The result for `C[C@@H]1C[C@@H](C[C@H](NC(=O)c2cc(Cl)ccc2NC(=O)[C@H]2CC2(F)F)C(=O)C(=O)NC2CC2)C(=O)N1` [Example 8, 5-chloro-N—((S)-4-(cyclopropylamino)-1-((3S,5R)-5-methyl-2-oxopyrrolidin-3-yl)-3,4-dioxobutan-2-yl)-2-((R)-2,2-difluorocyclopropane-1-carboxamido)benzamide] reads 10.1 nM; that for `O=C(NC1CC1)C(=O)[C@H](C[C@@H]1CCNC1=O)NC(=O)c1cc(Cl)ccc1NC(=O)C(F)(F)F` [Example 51, 5-chloro-N-[(1S)-3-(cyclopropylamino)-2,3-dioxo-1-[[(3S)-2-oxopyrrolidin-3-yl]methyl]propyl]-2-[(2,2,2-trifluoroacetyl)amino] benzamide], 8.6 nM.

Turning to `CNC(=O)C(=O)[C@H](C[C@@H]1C[C@@H](C)NC1=O)NC(=O)c1cc(Cl)cc(F)c1NC(=O)OC` [Example 133, methyl N-[4-chloro-2-fluoro-6-[[(1S)-3-(methylamino)-1-[[(3S,5R)-5-methyl-2-oxo-pyrrolidin-3-yl]methyl]-2,3-dioxo-propyl]carbamoyl]phenyl] carbamate], the IC50 was 9.9 nM.

Regarding `C[C@@H]1C[C@@H](C[C@H](NC(=O)c2cc(Cl)ccc2NC(=O)C2CC2C(F)(F)F)C(=O)C(=O)NC2CC2)C(=O)N1` (stereo partly drawn) [Example 98, 5-chloro-N-[(1S)-3-(cyclopropylamino)-1-[[(3S,5R)-5-methyl-2-oxo-pyrrolidin-3-yl]methyl]-2,3-dioxo-propyl]-2-[[2-(trifluoromethyl)cyclopropane-carbonyl]amino]benzamide], the IC50 is 9.5 nM. Consider `C[C@@H]1C[C@@H](C[C@H](NC(=O)c2cc(Cl)ccc2NC(=O)[C@@H]2CN(C)C(=O)N2C)C(=O)C(=O)NC2CC2)C(=O)N1` [Example 212, (4S)-N-[4-chloro-2-[[(1S)-3-(cyclopropylamino)-1-[[(3S,5R)-5-methyl-2-oxo-pyrrolidin-3-yl]methyl]-2,3-dioxo-propyl]carbamoyl]phenyl]-1,3-dimethyl-2-oxo-imidazolidine-4-carboxamide], for which the IC50 was 5.6 nM. The value for `CNC(=O)C(=O)[C@H](C[C@@H]1CCNC1=O)NC(=O)c1cc(Cl)ccc1NC(=O)OCC1CC1` [Example 136, cyclopropylmethyl N-[4-chloro-2-[[(1S)-3-(methylamino)-2,3-dioxo-1-[[(3S)-2-oxopyrrolidin-3-yl]methyl]propyl]carbamoyl]phenyl]carbamate] was 3.6 nM; that for `C[C@@H]1C[C@@H](C[C@H](NC(=O)c2cc(Cl)ccc2NC(=O)C23CC(C(F)(F)F)(C2)C3)C(=O)C(=O)NC2CC2)C(=O)N1` [Example 69, N-[4-chloro-2-[[(1S)-3-(cyclopropylamino)-1-[[(3S,5R)-5-methyl-2-oxo-pyrrolidin-3-yl]methyl]-2,3-dioxo-propyl]carbamoyl]phenyl]-3-(trifluoromethyl)bicyclo[1.1.1] pentane-1-carboxamide] was 6.9 nM. The result for `C[C@@H]1C[C@@H](C[C@H](NC(=O)c2cc(Cl)cc(Cl)c2NC(=O)C23CC(F)(C2)C3)C(=O)C(=O)NC2CC2)C(=O)N1` [Example 80, N-[2,4-dichloro-6-[[(1S)-3-(cyclopropylamino)-1-[[(3S,5R)-5-methyl-2-oxo-pyrrolidin-3-yl]methyl]-2,3-dioxo-propyl]carbamoyl]phenyl]-3-fluoro-bicyclo[1.1.1]pentane-1-carboxamide] reads 21.6 nM; that for `O=C(CCC(F)(F)F)Nc1ccc(Cl)cc1C(=O)N[C@@H](C[C@@H]1CCNC1=O)C(=O)C(=O)NC1CC1` [Example 29, 5-chloro-N-[(1S)-3-(cyclopropylamino)-2,3-dioxo-1-[[(3S)-2-oxopyrrolidin-3-yl]methyl]propyl]-2-(4,4,4-trifluorobutanoylamino) benzamide], 13.1 nM.

Regarding `O=C(NC1CC1)C(=O)[C@H](C[C@@H]1CCNC1=O)NC(=O)c1cc(F)ccc1NC(=O)C1(C(F)(F)F)CC1` [Example 12, N-[(1S)-3-(cyclopropylamino)-2,3-dioxo-1-[[(3S)-2-oxopyrrolidin-3-yl]methyl]propyl]-5-fluoro-2-[[1-(trifluoromethyl)cyclopropane-carbonyl]amino]benzamide], the IC50 is 48.2 nM. Turning to `C[C@@H]1C[C@@H](C[C@H](NC(=O)c2cc(Cl)c(F)cc2NC(=O)c2ccnc(C(F)(F)F)c2)C(=O)C(=O)NC2CC2)C(=O)N1` [Example 87], the IC50 is 6.6 nM. The value for `CNC(=O)C(=O)[C@H](C[C@@H]1C[C@@H](C)NC1=O)NC(=O)c1cc(F)c(Cl)cc1NC(=O)OC1CC1` [Example 155, cyclopropyl N-[5-chloro-4-fluoro-2-[[(1S)-3-(methylamino)-1-[[(3S,5R)-5-methyl-2-oxo-pyrrolidin-3-yl]methyl]-2,3-dioxo-propyl]carbamoyl]phenyl] carbamate] was 30.4 nM. Turning to `CNC(=O)C(=O)[C@H](C[C@@H]1C[C@@H](C)NC1=O)NC(=O)c1cc(Cl)ccc1NC(=O)C1CCCC1(F)F` (stereo partly drawn) [Example 184, 5-chloro-2-[(2,2-difluorocyclopentanecarbonyl)amino]-N-[(1S)-3-(methylamino)-1-[[(3S,5R)-5-methyl-2-oxo-pyrrolidin-3-yl]methyl]-2,3-dioxo-propyl]benzamide], the IC50 is 13.5 nM. The value for `C[C@@H]1C[C@@H](C[C@H](NC(=O)c2cc(Cl)ccc2NC(=O)C2CC23CC3)C(=O)C(=O)NC2CC2)C(=O)N1` (stereo partly drawn) [Example 82, N-[4-chloro-2-[[(1S)-3-(cyclopropylamino)-1-[[(3S,5R)-5-methyl-2-oxo-pyrrolidin-3-yl]methyl]-2,3-dioxo-propyl]carbamoyl]phenyl] spiro[2.2]pentane-2-carboxamide] was 10.8 nM.

For `C[C@@H]1C[C@@H](C[C@H](NC(=O)c2cc(Cl)ccc2NC(=O)CCC(F)(F)F)C(=O)C(N)=O)C(=O)N1` [Example 158, N-[(1S)-3-amino-1-[[(3S,5R)-5-methyl-2-oxo-pyrrolidin-3-yl]methyl]-2,3-dioxo-propyl]-5-chloro-2-(4,4,4-trifluorobutanoylamino) benzamide], the IC50 was 8.3 nM.
